Assay results taken from patent US9663764B2, “Generation of cardiomyocytes from human pluripotent stem cells” (Wisconsin Alumni Research Foundation, priority 2011, dated 2017).

Experiments:
Format in all cases: cell-based, human
[1] = system: 19-9-11 shcat-2 and scramble lines; assay: Flow cytometry of Oct4 and brachyury in CH-treated 19-9-11 shcat-2 and scramble lines; details: for cells expressing Oct4: 4 days of CH (12 μM) in mTeSR1
Procedure: Flow Cytometry: Cells were dissociated into single cells and then fixed with 1% paraformaldehyde for 20 min at room temperature and stained with primary and secondary antibodies in PBS plus 0.1% Triton X-100 and 0.5% BSA. For the cell proliferation assay, a 17-hour pulse of BrdU was performed to identify dividing cardiomyocytes (Zhang et al., Circ. Res. 104, e30-41 (2009)). Data were collected on a FACSCaliber flow cytometer (Beckton Dickinson) and analyzed using FlowJo. To test whether induction of cardiomyocyte differentiation by GSK3 inhibitors requires β-catenin, the inventors treated the shcat-2 and scramble 19-9-11 lines with CH in mTeSR1 medium. While the shcat-2 line maintained an undifferentiated morphology, the scramble line appeared to undergo differentiation (FIG. 2E), similar to non-transduced lines treated with CH (FIGS. 1B and 2B). Induction of differentiation following CH treatment in the scramble control was further indicated by diminished SOX2 and NANOG expression at day 4 (FIG. 3C). […] After 4 days of CH treatment in mTeSR1, the percentage of cells expressing Oct4 decreased to 61% in the scramble line, while 98% of the shcat-2 cells expressed Oct4 (FIG. 3D). […] To better understand early mesoderm induction via GSK3 inhibition, the inventors analyzed expression of the early mesoderm gene T in scramble and shcat-2 19-9-11 lines. As CH concentration increased, the ratio of T expression in scramble to the shcat-2 line increased (FIG. 3E). Less than 2% of shcat-2 cells expressed brachyury upon exposure to different concentrations of CH treatment for 4 days.

H9 hESCs = assay: Cardiac differentiation via EBs after CH pretreatment, contracting outgrowths; details: 0-8 μM CH for three days prior to EB formation; spontaneously-contracting outgrowths
Procedure: Cardiac Differentiation Via EBs: hPS cells were passaged onto MEFs (˜13,000 cells/cm^2) and cultured in hESC medium for 2 days followed by another 3 days in hESC medium supplemented with BIO (Sigma) or CHIR99021 (Selleck). To form EBs, hPS cell aggregates generated by […] were cultured in low-attachment plates overnight in RPMI plus 20% KnockOut serum replacer. The next day, the EBs were cultured in EB20 (RPMI plus 20% FBS) for 4 days in suspension. EBs were then plated onto 0.1% gelatin-coated 6-well culture plates at 50-100 EBs/well, and cultured in EB20 medium. After 10 days of differentiation, the FBS concentration was reduced to 2% EB2 (RPMI plus 2% FBS). The number of contracting EBs was visually assessed using a microscope with a 37° C. heated stage. […] Undifferentiated H9 hESCs were cultured in the presence of 0-8 μM CH for three days prior to EB formation. EBs were cultured in suspension for 4 days before transferring to 0.1% gelatin coated plates. […] The inventors also applied the GSK3 inhibitors CH and BIO to undifferentiated H9 hESCs three days prior to directed differentiation to cardiomyocytes via Activin A and BMP4.

[2] = system: 19-9-11 ishcat-1 and ishcat-2 cells; assay: Growth factor free cardiac differentiation by CH followed by dox-induced β-catenin shRNA, cTnT flow cytometry
Procedure: cardiac directed differentiation via small molecules: Cells were dissociated and plated as described in the Activin/BMP4 protocol. When hPS cells maintained on Matrigel® or Synthemax plates achieved confluence, cells were treated with CH in RPMI/B27-insulin for 24 hr (day 0 to day 1). The medium was changed to RPMI/B27-insulin, followed by 2 μg/ml dox treatment at different times between day 1 and day 5 for transgenic cell lines. For genetically unmodified lines, 5 μM IWP2 (Tocris) or IWP4 (Stemgent) was added at day 3 and removed during the day 5 medium change. Cells were maintained in the RPMI/B27 starting from day 7, with the medium changed every 3 days. Flow Cytometry: Cells were dissociated into single cells and then fixed with 1% paraformaldehyde for 20 min at room temperature and stained with primary and secondary antibodies in PBS plus 0.1% Triton X-100 and 0.5% BSA. For the cell proliferation assay, a 17-hour pulse of BrdU was performed to identify dividing cardiomyocytes (Zhang et al., Circ. Res. 104, e30-41 (2009)). Data were collected on a FACSCaliber flow cytometer (Beckton Dickinson) and analyzed using FlowJo. Our results and prior studies (Ren et al., J. Mol. Cell. Cardiol. 51:280-287 (2011); Tran et al., Stem Cells 27:1869-1878 (2009); Wang et al., A.C.S. Chem. Biol. 6, 192-197 (2011); […] et al., Circ Res. 109:360-364 (2011)) indicate that induction of canonical Wnt signaling early and suppression of canonical Wnt signaling at later stages of differentiation enhance yield of cardiomyocytes. The inventors next sought to determine whether modulating Gsk3 and canonical Wnt signaling alone was sufficient to induce cardiogenesis. Undifferentiated hPS cells were cultured in RPMI/B27-insulin medium containing CH. CH was removed by medium exchange at day 1 and dox was added to the medium at various time points between […] and day 4. At day 5, the medium was replaced with RPMI/B27-insulin (FIG. 6A) and cardiomyocyte differentiation was assessed at day 15 by the percentage and yield of cTNT and/or MF20 expressing cells. In the 19-9-11 […]-1 line, 12 μM CH produced the most cTNT+ cells at day 15 without additional dox-induced β-catenin knockdown (FIG. 7A). The inventors then investigated the effect of the timing of dox treatment following addition of 12 μM CH. Addition of dox 36 hours following initiation of differentiation generated 95% cTNT+ cells with yields of approximately 15 cTNT+ cells per input iPSC (FIGS. 6B and 7B). A high yield of cTNT+ cells was also obtained using 19-9-11 […]-2 and three additional hPS cell lines (IMR90C4, 6-9-9, and H9) transduced with inducible β-catenin shRNA […]-1 (FIG. 7C).

[3] = 12 μM CH, dox added 36 hours following initiation of differentiation, day 15

## Cc1c[nH]c(-c2cnc(NCCNc3ccc(C#N)cn3)nc2-c2ccc(Cl)cc2Cl)n1 [CH]
[1]; scramble line, 15 μM CH for 4 days
  brachyury+ cells: 76%
[1]; scramble line
  cells expressing Oct4: 61%
[1]; shcat-2 cells
  cells expressing Oct4: 98%
[1]; shcat-2 cells, different concentrations of CH for 4 days
  cells expressing brachyury: Less than 2%
H9 hESCs
  CH concentration at which efficiency of cardiomyocyte differentiation peaked: 2 to 4 µM
[2]; 12 μM CH followed by dox treatment at 36 hours, >50 independent experiments
  purity of cardiomyocytes: > 90%
[2]; [3]
  cTNT+ cells: 95%
  yield of cTNT+ cells: approximately 15 cTNT+ cells per input iPSC
[2]; 19-9-11 ishcat-1 line, without dox-induced β-catenin knockdown
  CH concentration that produced the most cTNT+ cells at day 15: 12 µM
